The values that follow are results of earlier work, collected in patent EP1870093A1, “Pharmaceutical combination comprising adenosine A1 receptor antagonists and radiocontrast media” (Solvay Pharmaceuticals GmbH, priority 2006, dated 2007).

In the data set the test system is radiocontrast media induced nephropathy. The following applies: Shammas 2001; Welch 2002; Huber 2002.

For `Cn1c(=O)c2[nH]cnc2n(C)c1=O` [theophylline], the “protection against radiocontrast media induced nephropathy” value is recorded as “effective in preventing radiocontrast media induced nephropathy”.

On to `Cn1c(=O)c2[nH]cnc2n(C)c1=O` [Aminophylline, aminophylline], for which the “protection against radiocontrast media induced nephropathy” value was “does not appear to add a protective role”.
